This passage reports IC50 results from patent US11555012B2 (Nimbus Artemis, Inc., priority 2018, dated 2023).

Where only a bound is given, the exact number is not on record here.

For this assay, the target named is ACL (Homo sapiens (Human), UniProt P53396). The experiment in a line: ADP-Glo Assay. On the technique in general: ADP-Glo turns the ADP formed in a reaction into a luminescent signal.
Chain of ACL (P53396 other isoform, or with tags, fused parts or gaps isoform P53396-2): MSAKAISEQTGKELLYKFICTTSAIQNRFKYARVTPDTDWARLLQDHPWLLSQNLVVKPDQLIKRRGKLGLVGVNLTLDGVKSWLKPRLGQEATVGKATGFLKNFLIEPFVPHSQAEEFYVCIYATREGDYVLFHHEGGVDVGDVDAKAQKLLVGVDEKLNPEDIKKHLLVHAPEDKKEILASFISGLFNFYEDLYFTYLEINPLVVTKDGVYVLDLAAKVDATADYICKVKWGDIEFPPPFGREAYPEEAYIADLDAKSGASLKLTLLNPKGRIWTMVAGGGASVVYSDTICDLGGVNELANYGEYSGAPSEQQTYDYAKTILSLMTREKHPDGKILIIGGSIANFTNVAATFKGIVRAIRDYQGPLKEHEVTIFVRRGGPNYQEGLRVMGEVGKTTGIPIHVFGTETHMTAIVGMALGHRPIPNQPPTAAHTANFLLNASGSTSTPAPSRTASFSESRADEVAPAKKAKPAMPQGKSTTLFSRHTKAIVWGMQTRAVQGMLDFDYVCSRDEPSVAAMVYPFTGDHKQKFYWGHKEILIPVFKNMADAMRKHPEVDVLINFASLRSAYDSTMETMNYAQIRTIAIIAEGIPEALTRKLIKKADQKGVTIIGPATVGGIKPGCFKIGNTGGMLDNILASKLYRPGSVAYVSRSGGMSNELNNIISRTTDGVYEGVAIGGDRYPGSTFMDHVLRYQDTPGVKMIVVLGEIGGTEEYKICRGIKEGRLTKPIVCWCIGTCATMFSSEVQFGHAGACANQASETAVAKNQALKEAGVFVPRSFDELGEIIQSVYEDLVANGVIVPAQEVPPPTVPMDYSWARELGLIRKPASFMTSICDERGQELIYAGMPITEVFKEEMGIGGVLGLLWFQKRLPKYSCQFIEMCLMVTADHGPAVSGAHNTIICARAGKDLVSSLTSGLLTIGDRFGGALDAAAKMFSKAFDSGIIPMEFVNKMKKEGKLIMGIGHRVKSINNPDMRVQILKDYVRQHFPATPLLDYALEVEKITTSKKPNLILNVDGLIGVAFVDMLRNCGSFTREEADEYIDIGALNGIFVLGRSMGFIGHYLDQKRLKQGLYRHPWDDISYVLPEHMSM
A word on the IC50: it is the concentration that gives 50% inhibition. Low values mean greater potency in that assay, high ones weaker potency in that assay. Compound `NC(=O)COc1c(Cl)cc(Cl)cc1C(=O)Nc1cc(-c2ccccc2)ccc1C(=O)O` [I-320, 3-(2-(2-amino-2-oxoethoxy)-3,5-dichlorobenzamido)-[1,1′-biphenyl]-4-carboxylic Acid] yielded an IC50 of 0.5 to 20 µM.

Turning to `O=C(O)c1ccc(-c2ccccc2)cc1NS(=O)(=O)c1cc(Br)cs1` [I-319, 3-((4-bromothiophene)-2-sulfonamido)-[1,1′-biphenyl]-4-carboxylic acid], the concentration for half-maximal inhibition (IC50) fell in the range of 0.5 to 20 µM.

`O=C(Nc1ccccc1)c1ccc(F)c(NS(=O)(=O)c2cc(Cl)cc(Cl)c2O)c1` [I-61, 3-((3,5-dichloro-2-hydroxyphenyl)sulfonamido)-4-fluoro-N-phenylbenzamide] registered an IC50 of 0.5 to 20 µM.

In turn, `O=C(Nc1cc(Br)ccc1C(=O)O)c1cc(Cl)cc(Cl)c1` [I-519, 4-bromo-2-(3,5-dichlorobenzamido)benzoic Acid] registered a half-maximal inhibitory concentration (IC50) of 0.5 to 20 µM.

In turn, `CS(=O)(=O)c1ccccc1S(=O)(=O)Nc1cc(-c2ccccc2)c(F)cc1F` [I-385, N-[4,6-difluoro-[1,1-biphenyl]-3-yl]-2-methanesulfonylbenzene-1-sulfonamide] came in with an IC50 above 20 µM.

For the compound `O=S(=O)(Nc1ccc(-c2ccccc2)cc1F)c1cccc2ncoc12` [I-393, N-(3-fluoro-[1,1′-biphenyl]-4-yl)benzo[d] oxazole-7-sulfonamide], the IC50 was above 20 µM.

As for `COc1cc(-c2ccccc2)ccc1NS(=O)(=O)c1cc(Cl)cc(Cl)c1C` [I-403, 3,5-dichloro-N-(3-methoxy-[1,1′-biphenyl]-4-yl)-2-methylbenzenesulfonamide], the half-maximal inhibitory concentration (IC50) was above 20 µM.

Turning to `COC(=O)COc1c(Br)cc(Cl)cc1S(=O)(=O)Nc1cc(-c2ccccc2)ccc1F` [I-78, Methyl 2-(2-bromo-4-chloro-6-(N-(4-fluoro-[1,1′-biphenyl]-3-yl)sulfamoyl)phenoxy)acetate], the IC50 lay within 0.5 to 20 µM.

`O=C(Nc1cc(-c2ccccc2)ccc1F)c1cc(Cl)cc(Cl)c1O` [I-27, 3,5-dichloro-N-(4-fluoro-[1,1′-biphenyl]-3-yl)-2-hydroxybenzamide] showed an IC50 of 0.5 to 20 µM.

Compound `CC(C)Oc1ccc(F)cc1NS(=O)(=O)c1cc(Cl)cc(Cl)c1O` [I-163] had a concentration for half-maximal inhibition (IC50) of 0.5 to 20 µM.

For `O=C(O)c1ccc(-c2ccccc2)cc1NS(=O)(=O)CCOCCN1C(=O)c2ccccc2C1=O` [I-360], the IC50 was in the range of 0.5 to 20 µM.

As to `Cc1noc(C)c1S(=O)(=O)Nc1cc(-c2ccccc2)ccc1C(=O)O` [I-351, 3-((3,5-dimethylisoxazole)-4-sulfonamido)-[1,1′-biphenyl]-4-carboxylic Acid], the 50% inhibitory concentration (IC50) was 0.5 to 20 µM.

`O=S(=O)(Nc1ccccc1Oc1ccccc1)c1cc(Cl)cc(Cl)c1O` [I-285, 3,5-dichloro-2-hydroxy-N-(2-phenoxyphenyl)benzene-1-sulfonamide] returned a half-inhibitory concentration (IC50) of 0.5 to 20 µM.

`CN(C)C(=O)c1cc(Cl)c(O)c(S(=O)(=O)Nc2cc(-c3ccccc3)ccc2C(=O)O)c1` [I-271, 3-((3-chloro-5-(dimethylcarbamoyl)-2-hydroxyphenyl)sulfonamido)-[1,1′-biphenyl]-4-carboxylic Acid]: the IC50 lay in the range of 0.5 to 20 µM.

`O=S(=O)(NC1CCN(c2nc3ccccc3s2)CC1)c1cc(Cl)cc(Cl)c1O` [I-176] displayed a 50% inhibitory concentration (IC50) of 0.5 to 20 µM.

With `COc1ccc(-c2ccccc2)cc1NS(=O)(=O)c1cc(-c2nn[nH]n2)cc(Cl)c1O` [I-73, 3-chloro-2-hydroxy-N-(2-methoxy-5-phenylphenyl)-5-(2H-1,2,3,4-tetrazol-5-yl)benzene-1-sulfonamide], the half-inhibitory concentration (IC50) lay in the range of 0.5 to 20 µM.

For `O=C(c1cc(Cl)c(O)c(S(=O)(=O)Nc2ccccc2F)c1)N1CCC1` [I-268, 5-(azetidine-1-carbonyl)-3-chloro-N-(2-fluorophenyl)-2-hydroxybenzene-1-sulfonamide], the IC50 lay within 0.5 to 20 µM.

Compound `Cc1ccc(S(=O)(=O)Nc2cc(-c3ccccc3)ccc2F)c(C)c1OCC(=O)O` [I-526, 2-(3-(N-(4-fluoro-[1,1′-biphenyl]-3-yl)sulfamoyl)-2,6-dimethylphenoxy)acetic acid] gave a 50% inhibitory concentration (IC50) above 20 µM.

With `O=S(=O)(Nc1ccc(F)cc1F)c1cc(Cl)cc(Cl)c1O` [I-219, 3,5-dichloro-N-(2,4-difluorophenyl)-2-hydroxybenzene-1-sulfonamide], the 50% inhibitory concentration (IC50) fell in the range of 0.5 to 20 µM.

`Cn1ncc(-c2ccccc2)c1NS(=O)(=O)c1cc(Cl)cc(Cl)c1O` [I-109, 3,5-dichloro-2-hydroxy-N-(1-methyl-4-phenyl-1H-pyrazol-5-yl)benzenesulfonamide]: the concentration for half-maximal inhibition (IC50) fell in the range of 0.5 to 20 µM.

In the case of `O=C(O)c1cc(NC(=O)c2cc(F)cc3nc[nH]c23)ccc1Cl` [I-535, 2-chloro-5-(5-fluoro-1H-benzo[d]imidazole-7-carboxamido)benzoic acid], the 50% inhibitory concentration (IC50) is above 20 µM.

For the compound `O=C(O)c1cc(Cl)c(O)c(S(=O)(=O)Nc2cc(-c3ccccc3)ccn2)c1` [I-536], the half-inhibitory concentration (IC50) is above 20 µM.

As to `COc1ccc(-c2ccccc2)cc1NS(=O)(=O)c1cc(CC(=O)O)cc(Cl)c1O` [I-68, 2-[3-chloro-4-hydroxy-5-[(2-methoxy-5-phenylphenyl)sulfamoyl]phenyl]acetic Acid], the IC50 lay in the range of 0.5 to 20 µM.

As for `O=C(O)c1ccc(-c2ccccc2)cc1NS(=O)(=O)c1cccc(C(F)(F)F)c1` [I-292, 3-((3-(trifluoromethyl)phenyl)sulfonamido)-[1,1′-biphenyl]-4-carboxylic acid], the IC50 was in the range of 0.5 to 20 µM.

`O=C(O)c1cc(Cl)c(O)c(S(=O)(=O)Nc2ccc(F)cc2F)c1` [I-76, 3-chloro-5-[(2,4-difluorophenyl)sulfamoyl]-4-hydroxybenzoic Acid] returned a half-maximal inhibitory concentration (IC50) of 0.5 to 20 µM.

In turn, `O=C(c1cc(Cl)cc(S(=O)(=O)Nc2cc(-c3ccccc3)c(F)cc2F)c1)N1CCC1` [I-386, 3-(azetidine-1-carbonyl)-5-chloro-N-(4,6-difluoro-[1,1′-biphenyl]-3-yl)benzenesulfonamide] had an IC50 above 20 µM.

`O=C(O)c1ccc(-c2ccccc2)cc1NS(=O)(=O)CCc1ccccc1` [I-259] came in with a half-maximal inhibitory concentration (IC50) of 0.5 to 20 µM.

`O=S(=O)(Nc1cnn(-c2ccccc2)c1)c1cc(Cl)cc(Cl)c1O` [I-170]: the concentration for half-maximal inhibition (IC50) lay in the range of 0.5 to 20 µM.

`CC(C)(C)C(=O)Oc1c(Cl)cc(C(=O)N2CCC2)cc1S(=O)(=O)Nc1cc(-c2ccccc2)c(F)cc1F` [I-210, 4-(azetidine-1-carbonyl)-2-chloro-6-(N-(4,6-difluoro-[1,1′-biphenyl]-3-yl)sulfamoyl)phenyl Pivalate] had an IC50 of 0.5 to 20 µM.

As for `CC(=O)NCCNC(=O)c1cc(Cl)c(O)c(S(=O)(=O)Nc2cc(-c3ccccc3)c(F)cc2F)c1` [I-161, N-(2-[[3-chloro-5-([4,6-difluoro-[1,1-biphenyl]-3-yl]sulfamoyl)-4-hydroxyphenyl]formamido]ethyl)acetamide], the concentration for half-maximal inhibition (IC50) fell in the range of 0.5 to 20 µM.

`O=C(O)COc1ccccc1S(=O)(=O)Nc1cc(-c2ccccc2)ccc1F` [I-379, 2-(2-(N-(4-fluoro-[1,1′-biphenyl]-3-yl)sulfamoyl)phenoxy)acetic Acid] displayed an IC50 above 20 µM.

`O=C(c1cc(Cl)c(O)c(NS(=O)(=O)c2cc(-c3ccccc3)ccc2F)c1)N1CCC1` [I-215, N-[5-(azetidine-1-carbonyl)-3-chloro-2-hydroxyphenyl]-4-fluoro-[1,1-biphenyl]-3-sulfonamide] displayed a 50% inhibitory concentration (IC50) of 0.5 to 20 µM.

On to `O=S(=O)(Nc1cc(-c2ccccc2)ccc1F)c1ccc(Cl)c(-c2nnn[nH]2)c1` [I-252], for which the half-maximal inhibitory concentration (IC50) was 0.5 to 20 µM.

`CC(C)(C)OC(=O)COc1ccc(-c2ccccc2)cc1NS(=O)(=O)c1cc(C(F)(F)F)cc(Cl)c1O` [I-265, tert-butyl 2-([3-[3-chloro-2-hydroxy-5-(trifluoromethyl)benzenesulfonamido]-[1,1-biphenyl]-4-yl]oxy)acetate] came in with a half-maximal inhibitory concentration (IC50) of 0.5 to 20 µM.

As to `O=C(COc1c(Cl)cc(C(=O)N2CCC2)cc1S(=O)(=O)Nc1cc(-c2ccccc2)c(F)cc1F)OCc1ccccc1` [I-375, benzyl 2-(4-(azetidine-1-carbonyl)-2-chloro-6-(N-(4,6-difluoro-[1,1′-biphenyl]-3-yl)sulfamoyl)phenoxy)acetate], the 50% inhibitory concentration (IC50) was above 20 µM.

Take `COC(=O)c1cc(Cl)cc(S(=O)(=O)Nc2cc(-c3ccccc3)ccc2OC)c1O` [I-431, Methyl 5-chloro-2-hydroxy-3-(N-(4-methoxy-[1,1′-biphenyl]-3-yl)sulfamoyl)benzoate]: the 50% inhibitory concentration (IC50) was above 20 µM.

`O=C(COc1c(Br)cc(Cl)cc1S(=O)(=O)N(Cc1ccccc1)c1cc(-c2ccccc2)ccc1F)OCc1ccccc1` [I-420, benzyl 2-(2-(N-benzyl-N-(4-fluoro-[1,1′-biphenyl]-3-yl)sulfamoyl)-6-bromo-4-chlorophenoxy)acetate] came in with an IC50 above 20 µM.

On to `COc1ccc(-c2ccccc2)cc1NS(=O)(=O)c1cc(Cl)c[nH]c1=O` [I-354, 5-chloro-N-[4-methoxy-[1,1-biphenyl]-3-yl]-2-oxo-1,2-dihydropyridine-3-sulfonamide], for which the IC50 lay within 0.5 to 20 µM.

In turn, `N#Cc1ccc(F)c(S(=O)(=O)Nc2cc(-c3ccccc3)ccc2F)c1` [I-418, 5-cyano-2-fluoro-N-(2-fluoro-5-phenylphenyl) benzene-1-sulfonamide] gave an IC50 above 20 µM.

With `O=S(=O)(Nc1cc(-c2ccccc2)c(F)cc1F)c1cccc2nsnc12` [I-390, N-(4,6-difluoro-[1,1 biphenyl]-3-yl)benzo[c][1,2,5]thiadiazole-4-sulfonamide], the concentration for half-maximal inhibition (IC50) is above 20 µM.

Regarding `CN(C)C(=O)C(NS(=O)(=O)c1cc(Cl)cc(Cl)c1O)c1ccccc1` (stereo not drawn) [I-179], the half-maximal inhibitory concentration (IC50) lay within 0.5 to 20 µM.

Consider `COc1ccc(-c2ccccc2)cc1NS(=O)(=O)c1cc(C(=O)O)cs1` [I-408, 5-(N-(4-methoxy-[1,1′-biphenyl]-3-yl)sulfamoyl) thiophene-3-carboxylic acid], for which the IC50 is above 20 µM.

`O=C(O)c1ccc(-c2ccccc2)cc1NS(=O)(=O)c1ccc2[nH]ncc2c1` [I-301, 3-(1H-indazole-5-sulfonamido)-[1,1′-biphenyl]-4-carboxylic Acid] registered an IC50 of 0.5 to 20 µM.

`O=S(=O)(Nc1cc(-n2nccn2)c(F)cc1F)c1cc(Cl)cc(Cl)c1O` [I-290, 3,5-dichloro-N-[2,4-difluoro-5-(2H-1,2,3-triazol-2-yl)phenyl]-2-hydroxybenzene-1-sulfonamide] yielded a half-maximal inhibitory concentration (IC50) of 0.5 to 20 µM.

As to `O=C(c1c[nH]c(=O)c(S(=O)(=O)Nc2cc(-c3ccccc3)ccc2F)c1)N1CCC1` [I-369, 5-(azetidine-1-carbonyl)-N-(4-fluoro-[1,1′-biphenyl]-3-yl)-2-oxo-1,2-dihydropyridine-3-sulfonamide], the IC50 lay in the range of 0.5 to 20 µM.
